{"source": "patent US20170304288A1", "about": "“Formulations of Methionine Aminopeptidase Inhibitors for Treating Infectious Diseases” (Texas Southern University, priority 2013, published 2017)", "data": [{"system": "M. tuberculosis HN 3409", "assay_type": "cell-based, Mycobacterium tuberculosis", "conditions": "preliminary results, 29 days", "units": {"Multi-Drug Resistant Tuberculosis Strain HN3409": "µg/mL"}, "values": [{"smiles": "Oc1c(Cl)cc(Cl)c2cccnc12", "Multi-Drug Resistant Tuberculosis Strain HN3409": "<1.0"}, {"smiles": "O=C1C(Br)=C(Br)C(=O)c2ccccc21", "Multi-Drug Resistant Tuberculosis Strain HN3409": "<25.0"}, {"smiles": "O=C1C(Cl)=C(Cl)C(=O)c2ccccc21", "Multi-Drug Resistant Tuberculosis Strain HN3409": "<10.0"}, {"smiles": "O=C(N/N=C/c1c(O)ccc2ccccc12)c1ccncc1", "note": "[drawing 27]", "Multi-Drug Resistant Tuberculosis Strain HN3409": ">25.0"}, {"smiles": "Oc1ccccc1/C=N/Nc1ncnc2sc3c(c12)CCCC3", "note": "[drawing 28]", "Multi-Drug Resistant Tuberculosis Strain HN3409": ">25.0"}, {"smiles": "Cc1nc(-c2ccccn2)nc(N(C)Cc2ccccc2)c1Cl", "note": "[drawing 29]", "Multi-Drug Resistant Tuberculosis Strain HN3409": "<1.0"}, {"smiles": "Oc1c(Br)cc(Cl)c2cccnc12", "note": "[drawing 31]", "Multi-Drug Resistant Tuberculosis Strain HN3409": "<5.0"}, {"smiles": "Oc1c(I)cc(Cl)c2cccnc12", "note": "[drawing 32]", "Multi-Drug Resistant Tuberculosis Strain HN3409": "<10.0"}]}]}
